IC50 data for ten compounds are collected here from patent US12667559B2, “Dihydronaphthyridinone compound, and preparation method therefor and medical use thereof” (GENFLEET THERAPEUTICS (SHANGHAI) INC., priority 2020, dated 2026).

The test system of experiment [1] is L929 cells. Description: Inhibitory activity against TNF-α induced programmed necrosis of L929 cells (CellTiter-Glo). It is filed as cell-based. To be noted: Mus musculus, 30 ng/ml murine TNF-α and 15 μM Z-VAD, 6 hours, survival rate. The source says:
(§1) The U937 cell line used in the following test examples is from ATCC, with the number of CRL-1593.2, batch number of 63479999, and the culture medium of RPMI-1640+10% FBS. The L929 cell line used in the following test examples is from ATCC, with the number of CCL-1, batch number of 70001022, and the culture medium of MEM+10% FBS+1% PS. The reagents used, and suppliers and article numbers thereof are as follows: RPMI-1640, Gibco, 11875-093; FBS, Gibco, 10099-141; Trypsin-EDTA, Gibco, 25200-072; PS, Gibco, 15140-122; CellTiter Glo, Progema, G7573; DMSO, VWR AMRESCO, 0231-500ML; TNF-α protein (human, recombinant), Peprotech, 300-01A; Q-VD-Oph, MCE, HY-12305; V-shaped bottom plate, Corning, 3894; 384 well low flange white flat bottom polystyrene TC-treated microplates, Corning, 3570; RIPK1, Eurofins, 16-022; MOPS, BDH, 441644J; EDTA, Sigma, E5134; myelin basic protein, Sigma, M1891-25.00 MG; magnesium acetate, Merck, DU008026; ATP (non-radioactive label), Sigma, A-7699; ATP (radioactive label), Hartmann Analytic, DU008054; phosphoric acid, Metlab, DU003000; Z-VAD: Shanghai Twochem Co., Ltd., YA02401.
The compounds to be tested was dissolved in DMSO and prepared as a 10 mM stock solution, which was diluted 3.16 times with DMSO to form a series of concentration gradients, and then diluted 100 times with culture medium to make a working solution. 10,000 L929 cells/well were seeded on a 384-well white plate, and the corresponding concentration of compound was added to each well to mix with the cells uniformly. At the same time, 30 ng/ml murine TNF-α and 15 μM Z-VAD were added to induce programmed necrosis of the cells. The final concentration of DMSO was 0.2%, and the cells were placed in a 37° C., 5% CO2 incubator for further incubation for 6 hours. CellTiter-Glo reagent was used for detection. After the reaction was fully lysed, the chemiluminescence readings was detected by a microplate reader. The test results were calculated using the formula for survival rate: SR (%)=(RLU compound−RLU blank)/(RLU high control-RLU blank)×100%. The survival rate and the final concentration of the corresponding compound were plotted as a curve, and fitted using a four-parameter model to calculate the inhibitory IC50 of compounds on TNF-α-induced programmed cell necrosis.

Experiment [2] deals with T1, RIPK1 (Homo sapiens, UniProt Q13546).
T1 construct: purchased Eurofins 16-022
T1 sequence (Q13546 1-671): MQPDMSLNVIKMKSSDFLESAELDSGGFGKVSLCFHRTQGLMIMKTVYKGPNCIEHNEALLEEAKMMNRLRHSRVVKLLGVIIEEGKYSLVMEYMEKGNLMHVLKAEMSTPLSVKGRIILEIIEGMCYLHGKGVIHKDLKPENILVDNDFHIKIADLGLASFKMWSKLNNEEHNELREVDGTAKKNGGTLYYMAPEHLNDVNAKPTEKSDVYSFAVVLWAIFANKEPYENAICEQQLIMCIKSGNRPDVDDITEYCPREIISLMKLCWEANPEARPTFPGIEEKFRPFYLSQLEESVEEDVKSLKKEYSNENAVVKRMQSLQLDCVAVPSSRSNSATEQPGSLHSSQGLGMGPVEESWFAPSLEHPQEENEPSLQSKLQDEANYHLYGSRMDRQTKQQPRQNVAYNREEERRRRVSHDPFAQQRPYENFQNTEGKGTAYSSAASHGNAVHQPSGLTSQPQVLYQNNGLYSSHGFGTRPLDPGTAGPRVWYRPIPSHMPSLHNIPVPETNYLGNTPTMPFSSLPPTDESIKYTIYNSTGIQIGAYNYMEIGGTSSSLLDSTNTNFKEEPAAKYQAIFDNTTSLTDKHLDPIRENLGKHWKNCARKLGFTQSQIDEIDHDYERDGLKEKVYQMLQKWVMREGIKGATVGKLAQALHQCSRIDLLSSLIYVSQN
Description: Inhibitory activity against RIPK1 enzyme (33P-ATP, MBP substrate). It is filed as biochemical. To be noted: 36 nM RIPK1, 0.33 mg/ml MBP, 155 μM 33P-ATP, 2 hours, room temperature.
Source text: as §1
The compounds to be tested was dissolved in DMSO to prepare a 10 mM stock solution, which was diluted 3.16 times with DMSO into a series of concentration gradients, and then diluted 50 times with MOPS buffer solution (pH 7.0) to prepare a working solution, which were mixed well with 36 nM RIPK1 (final concentration), and 0.33 mg/ml substrate MBP. 10 mM magnesium ions and 155 μM phosphorous 33 isotope-labeled ATP were added to the reaction. The final concentration of DMSO was 2%. After 2 hours of reaction at room temperature, phosphoric acid was added to stop the reaction. The final reaction system was processed and then detected with a liquid scintillation counter.

The subject of experiment [3] is U937 cells. Description: Inhibitory activity against TNF-α induced programmed cell necrosis (U937 cells, CellTiter-Glo). Type of experiment: cell-based, human. Particulars: Homo sapiens, U-937, 48 h, U937 cells, human TNF-α and Q-VD-Oph induced necrosis, 48 hours, survival rate; read-out: U937 IC50.

SMILES strings stand for the structures.

As for `C[C@H](c1ccc(F)cc1)n1cc(N2CCc3ncc(-c4ccn5nc(N)nc5c4)cc3C2=O)cn1` (single isomer, unassigned) [Z74], the IC50 is 2.3 nM in experiment [1], 193 nM in experiment [2] and 3.8 nM in experiment [3].

For `C[C@H](c1cc(F)ccc1-c1cnn(C)c1)N1CCc2ncc(-c3ccn4nc(N)nc4c3)cc2C1=O` (single isomer, unassigned) [Z85], the IC50 was found to be 13.4 nM in experiment [1], 34 nM in experiment [2] and 4.3 nM in experiment [3].

Take `CC(=O)Nc1cn2nc(-c3cnc4c(c3)C(=O)N(Cc3cc(F)cc(F)c3OC3CCOCC3)CC4)ccc2n1` [Z2, N-(6-(6-(3,5-difluoro-2-((tetrahydro-2H-pyran-4-yl)oxy)benzyl)-5-oxo-5,6,7,8-tetrahydro-1,6-naphthyridin-3-yl)imidazo[1,2-b]pyridazin-2-yl)acetamide]: the IC50 in experiment [1] is less than 2.8 nM; in experiment [2], 37 nM; in experiment [3] it was 0.103 nM.

In the case of `CC(=O)Nc1cn2nc(-c3cnc4c(c3)C(=O)N(Cc3ccccc3OC(F)(F)F)CC4)ccc2n1` [Z5, N-(6-(5-oxo-6-(2-(trifluoromethoxy)benzyl)-5,6,7,8-tetrahydro-1,6-naphthyridin-3-yl)imidazo[1,2-b]pyridazin-2-yl)acetamide], the IC50 was found to be 8 nM in experiment [1] and 46.7 nM in experiment [3].

Turning to `O=C(Nc1cn2nc(-c3cnc4c(c3)C(=O)N(Cc3ccccc3OC(F)(F)F)CC4)ccc2n1)C1CC1` [Z10, N-(6-(5-oxo-6-(2-(trifluoromethoxy)benzyl)-5,6,7,8-tetrahydro-1,6-naphthyridin-3-yl)imidazo[1,2-b]pyridazin-2-yl)cyclopropanecarboxamide], the IC50 in experiment [1] was determined as 2.4 nM; in experiment [2] it was 56 nM; in experiment [3] it was 5.9 nM.

Consider `Nc1nc2cc(-c3cnc4c(c3)C(=O)N(Cc3cc(F)ccc3OC3CCCC3)CC4)ccn2n1` [Z45, 3-(2-amino-[1,2,4]triazolo[1,5-a]pyridyl-7-yl)-6-(2-(cyclopentyloxy)-5-fluorobenzyl)-7,8-dihydro-1,6-naphthyridin-5(6H)-one], for which the figures for the IC50 in experiment [1] and in experiment [3] were 1.3 nM and 0.2 nM, respectively.

`Nc1nc2cc(-c3cnc4c(c3)C(=O)N(Cc3cccnc3OC3CCCC3)CC4)ccn2n1` [Z47, 3-(2-amino-[1,2,4]triazole[1,5-a]pyridyl-7-yl)-6-((2-(cyclopentyloxy)pyridyl-3-yl)methyl)-7,8-dihydro-1,6-naphthyridin-5(6H)-one]: the IC50 in experiment [1] is 5.1 nM; in experiment [3] it was 3 nM.

Turning to `Cn1cc(-c2ccc(F)cc2CN2CCc3ncc(-c4ccn5nc(N)nc5c4)cc3C2=O)cn1` [Z51, 3-(2-amino-[1,2,4]triazolo[1,5-a]pyridyl-7-yl)-6-(5-fluoro-2-(1-methyl-1H-pyrazol-4-yl)benzyl)-7,8-dihydro-1,6-naphthyridin-5(6H)-one], the values for the 50% inhibitory concentration (IC50) in experiment [2] and in experiment [3] were 72 nM and 24 nM, respectively.

Take `Nc1nc2cc(-c3cnc4c(c3)C(=O)N(Cc3cc(F)cc(F)c3OC3CC3)CC4)ccn2n1` [Z69]: the IC50 in experiment [1] turned out to be 3.7 nM; in experiment [2] it was 33 nM; in experiment [3] it was 1.4 nM.

With `Cc1c(-c2ccc(F)cc2CN2CCc3ncc(-c4ccn5nc(N)nc5c4)cc3C2=O)cnn1C` [Z82], the IC50 stood at 50 nM in experiment [2] and 23.4 nM in experiment [3].
